Laboratory results taken from PubChem BioAssay (NCI).
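Interpolation was linear, between the two tested concentrations surrounding the appropriate level; five concentrations were tested over 48 hours in 96-well plates. TGI denotes the concentration required for complete inhibition of growth.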

Columns and labels:
Assay in all cases: inhibition of tumour cell growth, NCI panel, 48 h
HL-60(TB) leukemia = tested on: HL-60(TB) leukemia
SNB-78 CNS = tested on: SNB-78 CNS
M14 melanoma = tested on: M14 melanoma
OVCAR-8 ovarian = tested on: OVCAR-8 ovarian
SK-MEL-5 melanoma = tested on: SK-MEL-5 melanoma
SF-539 CNS = tested on: SF-539 CNS
HT29 colon = tested on: HT29 colon
EKVX NSCLC = tested on: EKVX NSCLC
LOX IMVI melanoma = tested on: LOX IMVI melanoma
CCRF-CEM leukemia = tested on: CCRF-CEM leukemia
COLO 205 colon = tested on: COLO 205 colon
UACC-62 melanoma = tested on: UACC-62 melanoma
U251 CNS = tested on: U251 CNS
NCI-H460 lung = tested on: NCI-H460 lung
CAKI-1 renal = tested on: CAKI-1 renal
SK-OV-3 ovarian = tested on: SK-OV-3 ovarian
HCT-116 colon = tested on: HCT-116 colon
SNB-19 CNS = tested on: SNB-19 CNS
KM12 colon = tested on: KM12 colon
NCI-H522 lung = tested on: NCI-H522 lung
SF-295 CNS = tested on: SF-295 CNS
TK-10 renal = tested on: TK-10 renal
UACC-257 melanoma = tested on: UACC-257 melanoma
SNB-75 CNS = tested on: SNB-75 CNS
KM20L2 colon = tested on: KM20L2 colon
HCT-15 colon = tested on: HCT-15 colon
RPMI-8226 leukemia = tested on: RPMI-8226 leukemia
M19-MEL melanoma = tested on: M19-MEL melanoma
K-562 leukemia = tested on: K-562 leukemia
DLD-1 colon = tested on: DLD-1 colon
SN12C renal = tested on: SN12C renal
HOP-62 NSCLC = tested on: HOP-62 NSCLC
SK-MEL-2 melanoma = tested on: SK-MEL-2 melanoma
HOP-18 NSCLC = tested on: HOP-18 NSCLC
A498 renal = tested on: A498 renal
DMS 273 small cell lung = tested on: DMS 273 small cell lung
OVCAR-3 ovarian = tested on: OVCAR-3 ovarian
HOP-92 NSCLC = tested on: HOP-92 NSCLC
UO-31 renal = tested on: UO-31 renal
SK-MEL-28 melanoma = tested on: SK-MEL-28 melanoma
NCI-H23 lung = tested on: NCI-H23 lung
HCC-2998 colon = tested on: HCC-2998 colon
OVCAR-5 ovarian = tested on: OVCAR-5 ovarian
SF-268 CNS = tested on: SF-268 CNS
LXFL 529 NSCLC = tested on: LXFL 529 NSCLC
IGROV1 ovarian = tested on: IGROV1 ovarian
A549 NSCLC = tested on: A549 NSCLC
MALME-3M melanoma = tested on: MALME-3M melanoma
ACHN renal = tested on: ACHN renal
786-0 renal = tested on: 786-0 renal
SW-620 colon = tested on: SW-620 colon
SR leukemia = tested on: SR leukemia
MOLT-4 leukemia = tested on: MOLT-4 leukemia
OVCAR-4 ovarian = tested on: OVCAR-4 ovarian
RXF 393 renal = tested on: RXF 393 renal
NCI-H226 lung = tested on: NCI-H226 lung
DMS 114 small cell lung = tested on: DMS 114 small cell lung
XF 498 CNS = tested on: XF 498 CNS

COC(=O)C1C2C=CC(C2)N1[C@@H](C)c1ccccc1 (stereo not given in full)
TGI (HL-60(TB) leukemia): > 100 µM
TGI (SNB-78 CNS): > 100 µM
TGI (M14 melanoma): > 100 µM
TGI (OVCAR-8 ovarian): > 100 µM
TGI (SK-MEL-5 melanoma): > 100 µM
TGI (SF-539 CNS): > 100 µM
TGI (HT29 colon): > 100 µM
TGI (EKVX NSCLC): > 100 µM
TGI (LOX IMVI melanoma): > 100 µM
TGI (CCRF-CEM leukemia): > 100 µM
TGI (COLO 205 colon): > 100 µM
TGI (UACC-62 melanoma): > 100 µM
TGI (U251 CNS): > 100 µM
TGI (NCI-H460 lung): > 100 µM
TGI (CAKI-1 renal): > 100 µM
TGI (SK-OV-3 ovarian): > 100 µM
TGI (HCT-116 colon): > 100 µM
TGI (SNB-19 CNS): > 100 µM
TGI (KM12 colon): > 100 µM
TGI (NCI-H522 lung): > 100 µM
TGI (SF-295 CNS): > 100 µM
TGI (TK-10 renal): > 100 µM
TGI (UACC-257 melanoma): > 100 µM
TGI (SNB-75 CNS): > 100 µM
TGI (KM20L2 colon): > 100 µM
TGI (HCT-15 colon): > 100 µM
TGI (RPMI-8226 leukemia): > 100 µM
TGI (M19-MEL melanoma): > 100 µM
TGI (K-562 leukemia): > 100 µM
TGI (DLD-1 colon): > 100 µM
TGI (SN12C renal): > 100 µM
TGI (HOP-62 NSCLC): > 100 µM
TGI (SK-MEL-2 melanoma): > 100 µM
TGI (HOP-18 NSCLC): > 100 µM
TGI (A498 renal): > 100 µM
TGI (DMS 273 small cell lung): > 100 µM
TGI (OVCAR-3 ovarian): > 100 µM
TGI (HOP-92 NSCLC): > 100 µM
TGI (UO-31 renal): > 100 µM
TGI (SK-MEL-28 melanoma): > 100 µM
TGI (NCI-H23 lung): > 100 µM
TGI (HCC-2998 colon): > 100 µM
TGI (OVCAR-5 ovarian): > 100 µM
TGI (SF-268 CNS): > 100 µM
TGI (LXFL 529 NSCLC): > 100 µM
TGI (IGROV1 ovarian): > 100 µM
TGI (A549 NSCLC): > 100 µM
TGI (MALME-3M melanoma): > 100 µM
TGI (ACHN renal): > 100 µM
TGI (786-0 renal): > 100 µM
TGI (SW-620 colon): > 100 µM
TGI (SR leukemia): > 100 µM

O=c1cc(-c2ccccc2)c2cc3c(=O)ccoc3cc2o1
TGI (HL-60(TB) leukemia): > 100 µM
TGI (M14 melanoma): > 100 µM
TGI (OVCAR-8 ovarian): > 100 µM
TGI (MOLT-4 leukemia): > 100 µM
TGI (SK-MEL-5 melanoma): > 100 µM
TGI (SF-539 CNS): > 100 µM
TGI (HT29 colon): > 100 µM
TGI (EKVX NSCLC): > 100 µM
TGI (LOX IMVI melanoma): > 100 µM
TGI (CCRF-CEM leukemia): > 100 µM
TGI (COLO 205 colon): > 100 µM
TGI (UACC-62 melanoma): > 100 µM
TGI (U251 CNS): > 100 µM
TGI (NCI-H460 lung): > 100 µM
TGI (HCT-116 colon): > 100 µM
TGI (SNB-19 CNS): > 100 µM
TGI (SF-295 CNS): > 100 µM
TGI (TK-10 renal): > 100 µM
TGI (UACC-257 melanoma): > 100 µM
TGI (SNB-75 CNS): 90.3 µM
TGI (KM20L2 colon): > 100 µM
TGI (HCT-15 colon): > 100 µM
TGI (RPMI-8226 leukemia): > 100 µM
TGI (M19-MEL melanoma): > 100 µM
TGI (K-562 leukemia): > 100 µM
TGI (DLD-1 colon): > 100 µM
TGI (SN12C renal): > 100 µM
TGI (OVCAR-4 ovarian): > 100 µM
TGI (HOP-62 NSCLC): > 100 µM
TGI (SK-MEL-2 melanoma): > 100 µM
TGI (RXF 393 renal): > 100 µM
TGI (A498 renal): 78.7 µM
TGI (DMS 273 small cell lung): > 100 µM
TGI (OVCAR-3 ovarian): > 100 µM
TGI (NCI-H226 lung): > 100 µM
TGI (UO-31 renal): > 100 µM
TGI (SK-MEL-28 melanoma): > 100 µM
TGI (NCI-H23 lung): > 100 µM
TGI (HCC-2998 colon): > 100 µM
TGI (DMS 114 small cell lung): > 100 µM
TGI (SF-268 CNS): > 100 µM
TGI (XF 498 CNS): > 100 µM
TGI (A549 NSCLC): > 100 µM
TGI (MALME-3M melanoma): > 100 µM
TGI (ACHN renal): > 100 µM
TGI (786-0 renal): > 100 µM
TGI (SW-620 colon): > 100 µM
TGI (SR leukemia): > 100 µM
